Reference: PubChem BioAssay (NCI)
Several values for one entry are separate records, joined by “and”; a condition that tells them apart may be missing. Identical values can stand only once.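 Protocol summary: plate cells (96-well), add compound at 5 concentrations, incubate 48 h, interpolate endpoints linearly. Here, GI50 denotes the concentration required for 50% inhibition of growth. TGI is the concentration that stops growth completely.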

Key:
Assay in all cases: NCI tumour cell line growth inhibition, 48 h
[1] = system: SN12C renal
[2] = system: SF-268 CNS
[3] = system: A549 NSCLC
[4] = system: RXF 393 renal
[5] = system: OVCAR-3 ovarian
[6] = system: SF-539 CNS
[7] = system: IGROV1 ovarian
[8] = system: SNB-19 CNS

Compound | GI50 [1] | TGI [1] [µM] | GI50 [2] | TGI [2] | GI50 [3] | TGI [3] [µM] | GI50 [4] | TGI [4] | GI50 [5] | TGI [5] [µM] | GI50 [6] | TGI [6] | GI50 [7] | TGI [7] [µM] | GI50 [8] | TGI [8] [µM]
CCOC(=O)C1=C(C)NC(C)=C(C(=O)OCC)C1c1cc(Br)c(O)c(OC)c1 | 6.07 µM | 22.5 | 5.36 µM | 22.4 µM | 4.11 µM | 18.8 | 1.98 µM | 6.05 µM | 2.34 µM | 5.15 | 2.64 µM | 7.07 µM | 7.39 µM | 37.2 | 4.25 µM | 16.8
C=C1C(=O)O[C@H]2[C@H]1CC/C(COC(=O)c1cccc3ccccc13)=C\CC[C@@]1(C)O[C@@H]21 | 1.73 µM | 3.67 | 1.6 µM | 3.38 µM | 2.12 µM | 5.4 | 1.05 µM | 2.32 µM | 1.39 µM | 2.76 | 1.29 µM | 2.7 µM | 1.03 µM | 2.79 | 1.57 µM | 3.19
C[C@@H](Oc1cc(-c2cnn(C3CC4(CNC4)C3)c2)cnc1N)c1c(Cl)ccc(F)c1Cl | 2.59 µM | 13.8 | 4.19 µM | 18.2 µM | 3.09 µM | 12.6 | 3.39 µM | 12.7 µM | 9.94 µM | 22.1 | 2.51 µM | 7.89 µM | 6.64 µM | 21.5 | 9.7 µM | 24.3
COc1ccc(-c2nnc(Nc3nc(O)c(C4=c5cc(OC(F)(F)F)ccc5=NC4=O)s3)o2)cc1 | 16.5 µM | 40.5 | > 100 µM | > 100 µM | 17.2 µM | 81.4 | 13.9 µM | 29.1 µM | 5.75 µM | 90.8 | 16.2 µM | 30.7 µM | 22 µM | 60.7 | 9.67 µM | 31.2
O=Cc1c[nH]c2ccc(-c3csc4ccccc34)cc12 |  |  | 4.42 µM | 54.3 µM | 4.29 µM | > 100 | 1.58 µM | 5.13 µM | 2.01 µM | 5.03 | 2.41 µM | 7.52 µM | 3.81 µM | 59.9 | 5.98 µM | > 100
COc1ccc(C2=NNC(c3cc(Cc4ccc(O)c(C5CC(c6ccc(OC)cc6)=NN5)c4)ccc3O)C2)cc1 (stereo not drawn) | 8.84 µM | > 100 | 17.9 µM | > 100 µM | 6.84 µM | > 100 | 4.18 µM | 48.3 µM | 18.8 µM | > 100 | 22.4 µM | > 100 µM | 13.7 µM | > 100 | 6.89 µM | > 100
COc1ccc(/C=C/c2ccnc3ccccc23)cc1 |  | 32.7 |  | 30.4 µM |  | 30.8 |  | 35.4 µM |  | 26.3 |  | 37.6 µM |  | 32.5 |  | 36.8
CCc1ccc(Oc2nccc(-c3c(-c4ccc(F)cc4)ncn3C3CCNCC3)n2)cc1 | 5.19 µM | 13.9 | 6.76 µM | 15.4 µM | 5.18 µM | 13.3 | 3.99 µM | 7.49 µM | 10.5 µM | 14.5 | 4.79 µM | 9.57 µM | 4.71 µM | 12.1 | 7.84 µM | 17.2
Nc1cccc2c1CN(C1CCC(=O)NC1=O)C2=O (stereo not drawn) | > 100 µM | > 100 | > 100 µM | > 100 µM | > 100 µM | > 100 | > 100 µM | > 100 µM | > 100 µM | > 100 | > 100 µM | > 100 µM | > 100 µM | > 100 | > 100 µM | > 100
COc1cc(-c2nccc3[nH]c(-c4cccc5[nH]ccc45)nc23)cc(OC)c1OC | < 0.01 µM | 18.1 | < 0.01 µM | 16 µM | < 0.01 µM | 1.78 |  |  | < 0.01 µM | 11 | < 0.01 µM | 0.0139 µM | < 0.01 µM | 23.2 | < 0.01 µM | 20.6
O=C1c2cccc3cccc(c23)C(=O)N1CC#Cc1ccc2c3c(cccc13)C(=O)N(CCN1CCNCC1)C2=O | 1.71 µM | 3.68 | 13.5 µM | 35.5 µM | 3.19 µM | 12 | 2.7 µM | 10.4 µM | 3.6 µM | 12.4 | 1.82 µM | 3.39 µM | 3.2 µM | 13 | 1.96 µM | 4.18
NC(Cn1ccc(=O)c(O)c1)C(=O)O (stereo not drawn) |  | > 100 |  | > 100 µM |  | > 100 |  | > 100 µM |  | > 100 |  | > 100 µM |  | > 100 |  | > 100
Cc1ccc2c(n1)C(=O)C(Cl)=C(Nc1ccc(N3CCN(C)CC3)cc1)C2=O | 1.72 µM | 3.1 | 1.89 µM | 4.13 µM | 14.6 µM | 30 | 1.67 µM | 3.05 µM | 1.63 µM | 3.13 | 1.74 µM | 3.22 µM | 1.87 µM | 3.6 | 9.46 µM | 21.7
COc1ccc(Oc2nc(Nc3ccc(N4CCOCC4)cc3)ncc2NC(=O)Nc2cc(OC)cc(OC)c2)cc1 | 1.17 µM | 4.5 | 2.64 µM | > 33.3 µM | 1.86 µM | 12.5 | 1.54 µM | 5.8 µM | 1.41 µM | 5.46 | 1.06 µM | 4.69 µM | 4.45 µM | 13.9 | 4.66 µM | 28.8
S=C(Nc1ccc(Cl)cc1)SC1CCCCC1 |  | 51.3 |  | 84.9 µM |  | 56.4 |  | 58.9 µM |  | 56.9 |  | 61.3 µM |  | 54.2 |  | 53.6
Oc1[nH]c2ccc(Cl)cc2c1/C=c1/ccc2c(c1)N=C(c1ccc(C(F)(F)F)cc1)N=2 | 2.37 µM | 6.72 | 2.72 µM | 7.64 µM | 3 µM | 10.8 | 1.88 µM | 3.76 µM | 1.56 µM | 3.21 | 2.51 µM | 6.65 µM | 3.35 µM | 14.2 | 3.12 µM | 17
O=c1[nH]cc(CO)c(=O)[nH]1 | > 100 µM | > 100 | > 100 µM | > 100 µM | > 100 µM | > 100 | > 100 µM | > 100 µM | > 100 µM | > 100 | > 100 µM | > 100 µM | > 100 µM | > 100 | > 100 µM | > 100

Compound | GI50 [1] | TGI [1] [µM] | GI50 [2] | TGI [2] | GI50 [3] | TGI [3] [µM] | GI50 [4] | TGI [4] | GI50 [5] | TGI [5] [µM] | GI50 [6] | TGI [6] | GI50 [7] | TGI [7] [µM] | GI50 [8] | TGI [8] [µM]
COC(=O)c1c2c(c(C)[n+]([O-])c1C)C(=O)C=C(NCc1ccc(Br)cc1)C2=O | 0.581 µM | 1.74 | 1.22 µM | 3.35 µM | 0.705 µM | 2.74 | 1.09 µM | 2.54 µM | 0.252 µM | 0.845 | 0.72 µM | 2 µM | 0.473 µM | 2.14 | 1.23 µM | 2.48
O=C(NC1CCNCC1)c1[nH]ncc1NC(=O)c1c(Cl)cccc1Cl | 1.24 µM and 0.387 µM | > 50.3 | 0.343 µM and 0.352 µM | 3.82 µM and > 7.39 µM | 0.637 µM and 0.86 µM | > 100 | 0.236 µM and 0.202 µM | 0.635 µM and 0.464 µM | 0.325 µM and 0.386 µM | > 27.9 | 0.271 µM and 0.257 µM | 0.7 µM and 0.666 µM | 0.681 µM and 0.362 µM | > 55.2 | 0.361 µM and 0.336 µM | > 60
COc1cc2c(cc1OCc1ccccc1)N=C[C@@H]1C[C@@H](F)CN1C2=O | 0.273 µM | 3.4 | 0.184 µM | 1 µM | 0.829 µM | 6.98 | 0.217 µM | 0.511 µM | 0.315 µM | 0.787 | 1.52 µM | 4.68 µM |  | 0.411 | 0.596 µM | 18.2
Cc1ccc2nc3sc(=O)sc3nc2c1 |  | 29 |  | 30.1 µM |  | 29.6 |  | 67.8 µM |  | 27.7 |  | 35.1 µM |  | 31.7 |  | 36.7
O=S(=O)(CC(O)C(Cl)(Cl)Cl)NNc1ccccc1 (stereo not drawn) |  | > 100 |  | > 100 µM |  | > 100 |  | > 100 µM |  | > 100 |  | > 100 µM |  | > 100 |  | > 100
O=C1NC(=O)C(N2CCc3ccccc32)=C1c1ccc(Cl)cc1 | > 25 µM | > 25 | > 25 µM | > 25 µM | > 25 µM | > 25 | > 25 µM | > 25 µM | > 25 µM | > 25 | > 25 µM | > 25 µM | > 25 µM | > 25 | > 25 µM | > 25
N#Cc1ccc(N2Cc3cc(Cl)ccc3OC3=C2C(=O)N(Cc2ccc(F)cc2)C3=O)cc1 | 0.567 µM | 1.19 | 0.658 µM | 1.66 µM | 7.34 µM | 23.2 | 0.481 µM | 0.943 µM | 0.494 µM | 0.96 | 0.557 µM | 1.07 µM | 0.804 µM | 2.14 | 1.54 µM | 9.24
CCOC(=O)c1c(C(F)(F)F)n([O-])c2ccc(Cl)cc2[n+]1=O | 2.23 µM | 10.3 | 2.02 µM | 3.95 µM | 4.14 µM | 17.1 | 1.82 µM | 3.77 µM | 2.11 µM | 3.93 | 1.74 µM | 3.21 µM | 1.85 µM | 3.77 | 6.21 µM | 19.2
Cc1ccc(-c2c3c(N)nc(-c4ccncc4)nc3nc3c2c(C)nn3-c2ccccc2)cc1 | 2.58 µM | > 37.5 | 8.27 µM | > 37.5 µM | 2.62 µM | > 37.5 | 3.88 µM | 33 µM | 7.65 µM | 20.1 | 2.26 µM | 7.57 µM | 22.5 µM | > 37.5 | > 37.5 µM | > 37.5
COc1cc(C2CC(=O)c3c(C)nn(-c4nc5ccccc5[nH]4)c3C2)cc(OC)c1OC (stereo not drawn) |  |  | 8.01 µM | > 100 µM |  |  | 2.12 µM | 7.8 µM |  |  |  |  |  |  |  | 
CCN1CCN(CC(=O)Nc2nc3ccc(NCc4ccc(C)cc4)cc3s2)CC1 | 4.11 µM | 11.1 | 5.76 µM | 16.5 µM | 2.29 µM | 8.61 | 1.99 µM | 8.5 µM | 4.93 µM | 13.7 | 1.5 µM | 4.3 µM | 6.14 µM | 14.1 | 5.98 µM | 13.5
Cc1cc(Br)c2nsnc2c1[N+](=O)[O-] | 4.93 µM | 17.2 | 2 µM | 5.16 µM | 4.13 µM | 17.3 | 6.66 µM | 18.5 µM | 1.69 µM | 3.08 | 3.1 µM | 11.2 µM | 1.65 µM | 3.62 | 7.63 µM | 20.6
O=C(O)c1ccccc1-c1ccccc1C(=O)Nc1ccc2c(c1)Cc1ccccc1-2 |  | > 100 |  | > 100 µM |  | 97.5 |  | > 100 µM |  | 69.9 |  | 44.6 µM |  | > 100 |  | > 100
Cc1cc(C(=O)N2CCN(C)CC2)c2c(=O)n(-c3ccccc3)c(=O)n(CC(O)CN3CCN(c4ncccn4)CC3)c2n1 (stereo not drawn) | > 100 µM | > 100 | > 100 µM | > 100 µM |  |  |  |  | > 100 µM | > 100 | > 100 µM | > 100 µM | > 100 µM | > 100 | > 100 µM | > 100
COc1ccc(C2c3cc4c(c(OC)c3CC3OCC(=O)C32)OCO4)cc1OC (stereo not drawn) |  | > 100 | < 0.01 µM | > 100 µM | < 0.01 µM | > 100 |  |  |  |  |  |  |  | > 100 | < 0.01 µM | > 100
Cc1cn(C2CC(N=[N+]=[N-])C(CO)O2)c(=O)[nH]c1=O (stereo not drawn) | > 1000 µM | > 1000 |  |  | 325 µM | > 1000 |  |  | > 1000 µM | > 1000 |  |  | > 1000 µM | > 1000 |  | 
